From paper PMC10065799, “High-throughput profiling of sequence recognition by tyrosine kinases and SH2 domains using bacterial peptide display” (eLife, 2023)

Experiments:
c-Src kinase domain [1] = biological target: T1, c-Src kinase domain (Homo sapiens, UniProt P12931); test: RP-HPLC assay to measure peptide phosphorylation kinetics; type: biochemical; details: purified peptide substrate
c-Src kinase domain [2] = biological target: T1, c-Src kinase domain; test: pTyr-Var library bacterial peptide display kinase screen (enrichment scores); type: biochemical; details: sheet "Src"
EPHB2 kinase domain = test: as above; type: biochemical, human; details: sheet EPHB2
EPHB1 kinase domain = test: as above; type: biochemical, human; details: for Screen: sheet EPHB1, effect of the variant peptide relative to its reference peptide in the pTyr-Var library screen (enrichment scores); for Screen (variant relative to reference peptide, measured in the pTyr-Var library screen): sheet "EPHB1", variant seq vs reference seq, bacterial peptide display enrichment
c-Abl kinase domain [3] = biological target: T2, c-Abl kinase domain (Mus musculus, UniProt P00520); test: as above; type: biochemical; details: fig5-data2, sheet "Abl"; Screen for the variant/reference peptide pair, pTyr-Var library
T2 sequence (P00520 242-493 limits assumed): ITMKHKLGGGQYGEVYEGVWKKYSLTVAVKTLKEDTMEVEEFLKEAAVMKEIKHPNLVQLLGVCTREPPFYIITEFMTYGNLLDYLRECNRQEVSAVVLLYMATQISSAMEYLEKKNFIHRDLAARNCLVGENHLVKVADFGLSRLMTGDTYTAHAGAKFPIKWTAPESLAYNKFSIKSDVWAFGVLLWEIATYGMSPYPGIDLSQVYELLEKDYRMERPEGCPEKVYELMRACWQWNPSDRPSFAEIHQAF

Fer kinase domain = test: as above; type: biochemical, mouse; details: sheet "Fer"
c-Abl kinase domain [4] = biological target: T2, c-Abl kinase domain; test: ADP-Quest continuous fluorimetric kinase assay (Michaelis-Menten parameters and initial rates); type: biochemical; details: c-Abl kinase domain 10 nM, 100 μM ATP, 37 °C, three to five replicates, error = standard error of global Michaelis-Menten fit
[5] = biological target: human c-Src kinase domain (residues 260-528) (human) (UniProt P12931)
[6] = effect of the variant peptide relative to its reference peptide in the pTyr-Var library screen
[7] = effect of variant peptide relative to its reference peptide in the pTyr-Var library screen (enrichment scores)
[8] = value of the variant peptide against its reference peptide in the pTyr-Var library screen with Fer
[9] = variant peptide versus its reference peptide in the pTyr-Var library screen
[10] = variant peptide relative to its reference peptide, pTyr-Var library screen enrichment

Molecule	Phosphorylation Rate (c-Src kinase domain [1]) [s⁻¹]	Screen (EPHB2 kinase domain; [7])	Screen (EPHB1 kinase domain)	Screen (Fer kinase domain; [8])	Screen (c-Src kinase domain [2]; [9])	other results
Ac-WDLSEYSFKDP-NH2 [ITGA3_Y237_YF]	0.555	–	–	–	–	–
RNEAFYDTFST [EFCAB3_Y372_S370A]	–	-2.77	-3.139	-0.7665	–	Screen (c-Src kinase domain [2]; [6]): -0.05343; Screen (c-Abl kinase domain [3]): 0.8648
Ac-GPDESIYDMFPFKKKG-NH2 [Src Consensus (C-2S), Src Consensus variant with –2 Ser]	5.171	–	–	–	–	–
Ac-AGQEKYSAMRD-NH2 [HRAS-Y64-E63K]	0.027	–	–	–	–	–
Ac-LERFIYNREEL-NH2 [HLA-DPB1_Y59_F64L_YF, pTyr-Var library variant peptide, non-canonical c-Src substrate]	0.258	–	–	–	–	Screen (c-Src kinase domain [2]; [6]): 0.2529
Ac-GPDEPIYDMFPFKKKG-NH2 [Src Consensus (C-2P), Src Consensus variant with –2 Pro]	12.667	–	–	–	–	–
GHEFIYVDRMQ [PDGFRB_Y581_P584R_YF]	–	-3.317	-3.432	-2.31	-0.3711	–
Ac-GAPEVIYATPGAKKKG-NH2 [AblTide (2014), previously reported c-Abl consensus substrate]	–	–	–	–	–	Km (c-Abl kinase domain [4]): 35 ± 8 µM; kcat (c-Abl kinase domain [4]): 2.5±0.2 s^–1
HNLPIYEGFAL [ACTA1_Y168_V165L_YF]	–	-0.1826	-0.3324	-0.04484	–	Screen (c-Src kinase domain [2]; [6]): -0.1626; Screen (c-Abl kinase domain [3]): 0.278
FEDTLYTVLHR [UNC13D_Y61_A59T_YF]	–	–	–	–	-0.1643	Screen (EPHB2 kinase domain; effect of the variant relative to its reference peptide in the pTyr-Var library screen): -1.461; Screen (variant relative to reference peptide, measured in the pTyr-Var library screen) (EPHB1 kinase domain): -0.7483; Screen (Fer kinase domain; [10]): -0.9596
IVEELYAIPPD [PEAK1_Y797_S792I]	–	-0.0205	0.4436	0.2222	-0.02431	–
GREFIYVDPMQ [PDGFRA_Y574_H570R_YF]	–	-0.4123	-0.6275	-1.733	-0.9351	–
FQEPVYSVAFS [TBL1X_Y509_H504Y_YF]	–	-0.3359	–	–	-0.2752	Screen (variant relative to reference peptide, measured in the pTyr-Var library screen) (EPHB1 kinase domain): -0.4923; Screen (Fer kinase domain; [10]): -0.4973
Ac-GAEEEIYGIFGAKKKG-NH2 [SrcTide (2014) peptide Ac-…-NH2]	–	–	–	–	–	KM (μM) of phosphorylation, Michaelis-Menten analysis, ADP-Quest assay [5]: 7 µM
Ac-GAEEEIYGEFEAKKKG-NH2 [SrcTide (1995) peptide Ac-…-NH2]	–	–	–	–	–	KM (μM) of phosphorylation, Michaelis-Menten analysis, ADP-Quest assay [5]: 64 µM
